Measurements as given in ChEMBL document CHEMBL1201862, “PubChem BioAssay data set” (2004).
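48-hour exposure; five concentrations; linearly interpolated endpoints. GI50 marks 50% less growth.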 Active and inactive are the calls of the source. Cut-off read from the data, not from the text of the source: active = GI50 up to about 1.1 µM and inactive = higher.

Experiments:
Test in all cases: growth of human tumour cells (NCI), 48 h
ACHN = test system: ACHN
BT-549 = test system: BT-549
DU-145 = test system: DU-145
EKVX = test system: EKVX
HCT-116 = test system: HCT-116
IGROV-1 = test system: IGROV-1
MDA-MB-435 = test system: MDA-MB-435
MOLT-4 = test system: MOLT-4
NCI-H23 = test system: NCI-H23
RXF 393 = test system: RXF 393
SK-MEL-28 = test system: SK-MEL-28
SK-MEL-2 = test system: SK-MEL-2
SR = test system: SR
SW-620 = test system: SW-620
TK-10 = test system: TK-10
MCF7 = test system: MCF7
OVCAR-8 = test system: OVCAR-8
CCRF-CEM = test system: CCRF-CEM
COLO 205 = test system: COLO 205
HL-60 = test system: HL-60

Measured: GI50

CCOc1ccccc1Nc1ccc(N)cc1S(=O)(=O)O
inactive: ACHN > 100 µM | BT-549 > 100 µM | DU-145 > 100 µM | EKVX > 100 µM | HCT-116 > 100 µM | IGROV-1 > 100 µM | MDA-MB-435 > 100 µM | MOLT-4 > 100 µM | NCI-H23 > 100 µM | RXF 393 > 100 µM | SK-MEL-28 > 100 µM | SK-MEL-2 > 100 µM | SR > 100 µM | SW-620 > 100 µM | TK-10 > 100 µM

CCC(=O)Nc1ncnc2ncn(C(=O)CC)c12
inactive: ACHN > 100 µM | BT-549 > 100 µM | DU-145 > 100 µM | EKVX > 100 µM | HCT-116 > 100 µM | IGROV-1 > 100 µM | MCF7 > 100 µM | MDA-MB-435 > 100 µM | MOLT-4 > 100 µM | NCI-H23 > 100 µM | OVCAR-8 > 100 µM | RXF 393 > 100 µM | SK-MEL-28 > 100 µM | SK-MEL-2 > 100 µM | SR > 100 µM | SW-620 > 100 µM | TK-10 > 100 µM

COCCCN(Cc1cc(OC)c(OC)c(OC)c1)C(=S)Nc1cccc(Cl)c1
inactive: ACHN 28.6 µM | BT-549 22.6 µM | CCRF-CEM 25.3 µM | COLO 205 33.8 µM | DU-145 37.7 µM | EKVX 12.3 µM | HCT-116 17.2 µM | HL-60 17.7 µM | IGROV-1 34.4 µM | MCF7 21.7 µM | MDA-MB-435 20.9 µM | MOLT-4 13.4 µM | OVCAR-8 25 µM | RXF 393 26.8 µM | SK-MEL-28 27.5 µM | SK-MEL-2 23.1 µM | SW-620 31.8 µM | TK-10 47 µM

O=C1CCCSCCCC(=O)CCCSCCC1
inactive: BT-549 > 100 µM | CCRF-CEM > 100 µM | COLO 205 > 100 µM | DU-145 > 100 µM | EKVX > 100 µM | HCT-116 > 100 µM | HL-60 > 100 µM | IGROV-1 > 100 µM | MCF7 > 100 µM | MDA-MB-435 > 100 µM | MOLT-4 > 100 µM | NCI-H23 > 100 µM | OVCAR-8 > 100 µM | SK-MEL-28 > 100 µM | SR > 100 µM | SW-620 > 100 µM | TK-10 > 100 µM

COc1cc(C2c3cc4c(cc3OC(NN=C(C)C)C2C)OCO4)cc(OC)c1O (stereo unspecified)
inactive: BT-549 12.2 µM | COLO 205 30.9 µM | DU-145 24.1 µM | HCT-116 24.9 µM | IGROV-1 15.7 µM | MCF7 12.4 µM | MDA-MB-435 1.24 µM | NCI-H23 26.7 µM | OVCAR-8 27.5 µM | RXF 393 24.7 µM | SK-MEL-28 11.5 µM | SK-MEL-2 8.61 µM | SR 1.44 µM | SW-620 6.93 µM | TK-10 25.4 µM

Cc1cc(=O)oc2cc(OCc3c(F)cccc3Cl)ccc12
inactive: ACHN 79.8 µM | BT-549 28.2 µM | DU-145 > 100 µM | HCT-116 4.41 µM | HL-60 3.76 µM | IGROV-1 9.46 µM | MCF7 4.6 µM | MDA-MB-435 1.78 µM | NCI-H23 > 100 µM | OVCAR-8 > 100 µM | RXF 393 7.23 µM | SK-MEL-28 > 100 µM | SK-MEL-2 4.55 µM | TK-10 > 100 µM

CCCc1nc(Cl)c(Cl)c(Cl)n1
inactive: BT-549 23.2 µM | CCRF-CEM 8.81 µM | COLO 205 25.4 µM | DU-145 35 µM | EKVX 21.4 µM | HCT-116 9.68 µM | HL-60 15.4 µM | IGROV-1 17.4 µM | MCF7 16.1 µM | MDA-MB-435 20.1 µM | MOLT-4 12.4 µM | NCI-H23 18.7 µM | OVCAR-8 18.7 µM | RXF 393 19.2 µM | SK-MEL-28 56.5 µM | SR 5.78 µM | SW-620 14.8 µM | TK-10 > 71.9 µM

COc1ccccc1-c1nc[nH]c1-c1ccccc1OC
inactive: ACHN 35.9 µM | BT-549 33.4 µM | EKVX 25.6 µM | HCT-116 31.8 µM | IGROV-1 29 µM | MCF7 24.8 µM | MOLT-4 29.2 µM | NCI-H23 27.4 µM | RXF 393 24.5 µM | SK-MEL-28 33.7 µM | SK-MEL-2 28.5 µM | SW-620 40.3 µM | TK-10 22.5 µM

COc1ccc2c(c1)CCC1=CC3(CCC12C)SCCS3 (stereo unspecified)
inactive: ACHN 5.3 µM | BT-549 > 10 µM | CCRF-CEM 3.97 µM | COLO 205 4.73 µM | DU-145 > 10 µM | HL-60 2.81 µM | IGROV-1 6.19 µM | MCF7 3.48 µM | MDA-MB-435 3.74 µM | MOLT-4 3.8 µM | NCI-H23 6.82 µM | OVCAR-8 > 10 µM | SK-MEL-28 5.24 µM | SR 4.41 µM | SW-620 4.56 µM | TK-10 > 10 µM

O=C1c2ccccc2NC2C(O)c3ccccc3N12 (stereo unspecified)
inactive: ACHN 40.8 µM | BT-549 58.2 µM | CCRF-CEM 29.4 µM | COLO 205 41.1 µM | DU-145 45.6 µM | EKVX 35.4 µM | HCT-116 30.5 µM | IGROV-1 72.8 µM | MCF7 40.2 µM | MDA-MB-435 17.7 µM | MOLT-4 21 µM | NCI-H23 29.8 µM | OVCAR-8 49.1 µM | RXF 393 > 100 µM | SK-MEL-2 52 µM | SR 38.4 µM | SW-620 9.46 µM | TK-10 99.3 µM

CN(C)C(=S)N/N=C\C(=N/NC(=S)N(C)C)c1ccccc1
inactive: ACHN 3.72 µM | BT-549 > 22.2 µM | COLO 205 4.03 µM | DU-145 4.23 µM | EKVX 7.36 µM | HCT-116 3.52 µM | IGROV-1 3.7 µM | MCF7 4.03 µM | MDA-MB-435 34.9 µM | MOLT-4 > 100 µM | NCI-H23 9.46 µM | OVCAR-8 4.82 µM | RXF 393 7.36 µM | SK-MEL-28 7.16 µM | SK-MEL-2 3.96 µM | SW-620 4.53 µM | TK-10 6.87 µM

COc1cccc(/N=N/C(=N/NC(=O)c2ccc(C)cc2)c2ccc(N(CCC#N)CCC#N)cc2OC)c1
inactive: ACHN > 100 µM | BT-549 > 100 µM | CCRF-CEM > 100 µM | COLO 205 > 100 µM | DU-145 > 100 µM | EKVX 22.9 µM | HCT-116 > 100 µM | IGROV-1 > 100 µM | MCF7 > 100 µM | MDA-MB-435 > 100 µM | MOLT-4 > 100 µM | NCI-H23 > 100 µM | OVCAR-8 > 100 µM | RXF 393 > 100 µM | SK-MEL-28 > 100 µM | SK-MEL-2 > 100 µM | SR > 100 µM | SW-620 > 100 µM | TK-10 8.05 µM

Cc1cccc(C)c1NC(=O)C(=O)CC(=O)c1sc(Nc2c(C)cccc2C)nc1C
inactive: ACHN > 100 µM | BT-549 > 100 µM | CCRF-CEM > 100 µM | COLO 205 > 100 µM | DU-145 > 100 µM | EKVX > 100 µM | HCT-116 > 100 µM | HL-60 25.5 µM | IGROV-1 > 100 µM | MCF7 > 100 µM | MDA-MB-435 > 100 µM | MOLT-4 > 100 µM | NCI-H23 > 100 µM | OVCAR-8 > 100 µM | RXF 393 61.1 µM | SK-MEL-2 > 100 µM | SW-620 > 100 µM | TK-10 > 100 µM

O=C(/N=N/c1ccc(Cl)cc1Cl)NNc1ccc(Cl)cc1Cl
inactive: ACHN 16.6 µM | BT-549 14.8 µM | CCRF-CEM 20.2 µM | DU-145 14.7 µM | HCT-116 13.9 µM | HL-60 20.7 µM | IGROV-1 27 µM | MDA-MB-435 16.1 µM | MOLT-4 16.3 µM | NCI-H23 17.1 µM | OVCAR-8 17.7 µM | SK-MEL-28 20.7 µM | SK-MEL-2 12.9 µM | SR 23.2 µM | SW-620 21.3 µM | TK-10 24.3 µM

O=C(O)C1OC1C(=O)O (stereo unspecified)
inactive: ACHN > 100 µM | BT-549 > 100 µM | COLO 205 > 100 µM | DU-145 > 100 µM | EKVX > 100 µM | HCT-116 > 100 µM | IGROV-1 > 100 µM | MCF7 > 100 µM | MDA-MB-435 > 100 µM | NCI-H23 > 100 µM | OVCAR-8 > 100 µM | RXF 393 > 100 µM | SK-MEL-28 > 100 µM | SK-MEL-2 > 100 µM | SR > 100 µM | SW-620 > 100 µM | TK-10 > 100 µM

C/C=C/C1OC(O)(C(C)C(O)[C@H](C)C2OC(=O)/C(OC)=C/C(C)=C/[C@@H](C)[C@@H](O)[C@@H](C)C(O)C(C)C/C(C)=C/C=C/C2OC)C[C@@H](OC2CC(O)C(OC(N)=O)C(C)O2)C1C (stereo partly specified)
active: ACHN < 0.01 µM | BT-549 < 0.01 µM | CCRF-CEM < 0.01 µM | COLO 205 < 0.01 µM | DU-145 < 0.01 µM | EKVX < 0.01 µM | HCT-116 < 0.01 µM | HL-60 < 0.01 µM | IGROV-1 < 0.01 µM | MCF7 < 0.01 µM | MDA-MB-435 < 0.01 µM | MOLT-4 < 0.01 µM | NCI-H23 < 0.01 µM | OVCAR-8 < 0.01 µM | SK-MEL-2 < 0.01 µM | SW-620 < 0.01 µM | TK-10 < 0.01 µM
inactive: SK-MEL-28 1.45 µM
